Structure (SMILES)	melting point
COC(=O)C(=O)c1ccc(OC/C=C/c2ccccc2)cc1	80 to 82 °C
CC(C)(CCCC(=O)O)c1cc(C(=O)O)c(O)c(C(C)(C)CCCC(=O)O)c1	161 to 163 °C
Cc1cc(Nc2ccccc2C(=O)O)n(Cc2cccnc2)n1	180 to 183 °C
COc1ccc(-c2[nH]nc3c2C(=O)c2c(NC(=O)Cc4cc(OC)ccc4OC)cccc2-3)cc1	226 °C
CC(C)n1c(=O)oc2cc([N+](=O)[O-])cc(F)c21	122 to 123 °C
O=c1[nH]c(=O)n(C2CC(OCc3cccc(Cl)c3)C(CO)O2)cc1F (stereo not given)	153 to 155 °C
CS(=O)(=O)OCc1ccc(-c2nnc3n2-c2cccnc2Nc2ccccc2-3)cc1	252 to 253 °C
O=C1Cc2cc(Br)ccc2O1	147 to 148 °C
O=C(O)c1cc(NCc2c(F)c(F)c(C(F)(F)F)c(F)c2F)ccc1OC(=O)C1CCCCC1	190 to 193 °C
CSc1ncc2nc(C)nc(Nc3ccc(F)c(Cl)c3)c2n1	70 to 75 °C
O=C1NC(=O)c2ccc(I)cc2/C1=C/Nc1ccc(CN2CCCCC2)cc1	202 to 203 °C
Cc1c(Br)sc(N2C(=O)c3ccccc3C2=O)c1C(=O)c1ccc(Cl)cc1	194 to 195 °C
N#CC(=NO)c1cccc(C(=O)c2ccccc2)c1	147 to 148 °C
Cc1c(O[Si](C)(C)C(C)(C)C)cc(O[Si](C)(C)C(C)(C)C)c(C)c1C(=O)OCC(Cl)(Cl)Cl	90 to 92 °C
O=CN(O)C(CCc1ncc(F)cn1)CS(=O)(=O)N1CCN(c2ccc(Cl)cn2)CC1 (stereo not given)	154 to 155 °C
CCc1nc2nc3cc(Cl)ccc3nc2n1C(=O)c1ccccc1Br	130 to 132 °C
CCOP(=O)(/C=C/c1cn(-c2ccccc2)nc1OCc1ccc(OCc2nc(-c3ccco3)oc2C)c(C(=O)O)c1)OCC	169 to 170 °C
Cc1ccc(OCC#CI)cn1	155 to 157 °C
COc1cc(C(=O)N2CCC(CCN3CCC(=C(c4ccccc4)c4ccccc4)CC3)(c3ccc(Cl)c(Cl)c3)C2)cc(OC)c1OC (stereo not given)	90 to 94 °C
Cc1nc(O)c(C)c(NCC2CC2)n1	227 to 228 °C
CN(C)C(=O)C(CCO)C1(C)OCCc2c1[nH]c1ccccc21 (stereo not given)	158 to 160 °C
O=C(O)C=Cc1ccc(Cn2ccnc2)c(Cl)c1	227 to 229 °C
COc1ccc(C(C)(O)c2cccc(OCc3nc(-c4ccccc4)oc3C)c2)c(OCCOC(C)=O)c1 (stereo not given)	144 to 145 °C
CCCCCCCCCCCCC(C)CNc1cc(C)c([N+](=O)[O-])cc1C(=O)O (stereo not given)	98 to 100 °C
O=C(O)c1cc2cc(Cl)ccc2nc1NC(COCc1ccccc1)C(=O)Nc1ccccc1 (stereo not given)	150 to 151 °C

Structure (SMILES)	melting point
CC1(C)NC(=O)CN1C(=O)CNC(=O)OCc1ccccc1	135 to 136 °C
CCOCc1cc(N2C(=O)C3=C(CCCC3)C2=O)c(F)cc1Cl	89 to 91 °C
C=C(CC)C(=O)c1ccc(OCC(=O)O)c(Cl)c1	83.5 to 85.5 °C
CCc1ccc(C(=O)N[C@H](Cc2ccccc2)C(=O)O)cc1	166 °C
CN1Cc2c(C(N)=O)ncn2-c2ccc(Cl)cc2C1=O	275 to 277 °C
O=S(=O)(NCCc1cccc(CCNS(=O)(=O)c2ccc(Cl)cc2)c1)c1ccc(Cl)cc1	135 to 136 °C
CC(=O)NCC(C)(C)c1ccc2nc(-c3c[nH]cn3)[nH]c2c1	235 to 237 °C
NC(=O)N(O)Cc1ccc(Oc2ccc(-n3ccnc3)cc2)s1	141 °C
CC(C)[C@@H]1COC(=O)N1C(=O)[C@@H](CC(=O)OC(C)(C)C)Cc1ccccc1	167 to 168 °C
c1ccc(NC(Nc2ccccc2)Nc2ccccc2)cc1	138 to 139 °C
O=[N+]([O-])c1ccc(N2C[C@H]3CN(Cc4ccccc4)C[C@H]3C2)cc1	121 to 123 °C
Cc1ccnc2c1C(=O)CC(c1ccco1)C2 (stereo not given)	70 to 71 °C
C[N+](C)([O-])c1ccc(/C=C/c2c(F)cccc2F)cc1	100 to 103 °C
CCCCCCOc1ccc(C(=O)Nc2ccccc2Oc2cccc(OCc3nnn[nH]3)c2)cc1	158 to 159 °C
COC(=O)[C@@H](CCN1C(=O)c2ccccc2C1=O)Oc1c(Br)cc(-c2c(Br)ccc3sc4ccccc4c23)cc1Br	99 to 101 °C
CCCCCCCCCCCCCCCCC(O)CNCCO (stereo not given)	84.5 to 86 °C
Nc1nc(F)cc(Oc2ccc(Cl)cc2)n1	223 to 226 °C
O=C1NC2CCCCN2C12CCNCC2 (stereo not given)	193 °C
CCOC(=O)CSc1nc(O)c(C)c(O)n1	211 to 214 °C
CNC(=O)c1nc(Cl)c(Cl)[nH]1	240 °C
Cc1ccccc1OC(C)C(=O)OC1CC(O)C=C2C=CC(C)C(CCC3CC(O)CC(=O)O3)C21 (mixture of isomers)	85 to 87 °C
O=C(Nc1ccc(C(F)(F)F)cc1)N1CC(NC(=O)C(F)(F)F)C(c2ccc(Cl)cc2)=N1 (stereo not given)	259 to 260 °C
NS(=O)(=O)c1cccc(-c2noc(-c3cnn4c(C(F)F)cc(-c5ccc(C(F)(F)F)cc5)nc34)n2)c1	267 °C
CC1CN(c2c(F)cc3c(=O)c(C(=O)O)cn(C(C)C)c3c2F)CCN1 (stereo not given)	217 to 218 °C
NCc1nnc2n1-c1ccc(Cl)cc1C(c1ccccc1)=NC2	168 to 172 °C

Structure (SMILES)	melting point
COc1ccc(CNC(=NC#N)Nc2ccc(C3=NNC(=O)CC3C)cc2)cc1 (stereo not given)	231 to 233 °C
CCc1c(C)[nH]c(=O)c(CC)c1Oc1cc(C)cc(C)c1	180 °C
CC(=O)NCC1CN=C(c2ccccc2F)c2cc(Cl)ccc2N1C(C)=O (stereo not given)	213 to 215 °C
CCOc1ccn2nc(S(=O)(=O)Cl)nc2n1	91 to 96 °C
CCOCc1nc2c(N)nc3cc(N4CCOCC4)ccc3c2n1CCCOC(C)C	161 to 162 °C
CC(O)Cc1cc2c3ccccc3[nH]c(=O)n2n1 (stereo not given)	228 to 229 °C
CCNC(=O)C1=C([Si](C)(C)C)S(=O)(=O)c2ccccc21	135 to 148 °C
COc1cc(COc2nn(-c3ccccc3)cc2/C=C/c2nc(N3CCCCC3)sc2C)ccc1OCc1nc(-c2ccc(CC(=O)O)cc2)oc1C	146 to 148 °C
Nc1nc(-c2cc(Cl)ccc2Cl)nc(N2CCSCC2)n1	239 to 241 °C
CCOC(=O)C(C)c1ccc(-c2cn3ccccc3n2)cc1 (stereo not given)	110 to 112 °C
Nc1nc2ccccc2c2c1ncn2CCNC(=O)CCCCC1SCC2NC(=O)NC21 (stereo not given)	169 °C
CCOC(=O)c1cn(-c2ccc(F)cc2F)c2nc(N3CCC(NC(C)=O)C3)c(F)cc2c1=O (stereo not given)	233 to 236 °C
CC(C)C[C@H](NC(C)C)C(=O)O	293 to 296 °C
c1ccc(Cn2c(-c3ccc4c(c3)OCCO4)nc3cccnc32)cc1	156 to 158 °C
O=C(CN1CCC(Cc2ccccc2)CC1)Nc1ccc2c(c1)NC(=O)CO2	220 to 222 °C
CCOC(=O)N1CCN(c2nc(N(C(C)=O)C3CC3)ccc2[N+](=O)[O-])CC1	90 to 93 °C
CC(=O)N[C@H]1CC[C@H](CCN2CCN(c3nccc4c3OCC4)CC2)CC1	195 °C
CCOC(=O)c1cnn(-c2cc(Cl)cc(Cl)c2)c1C(N)=O	164 to 166 °C
CCOC(=O)CCn1c(C(=O)Nc2nc(-c3cc(OC)c(Cl)cc3OC)c(CCC3CCCCC3)s2)cc2ccccc21	79 to 85 °C
Cc1ccc(NC(=S)Nc2cccc3c2C2CCCCN2C3=O)nc1 (stereo not given)	232 °C
O=[N+]([O-])c1cccc2c1COC2	104 to 108 °C
O=C(O)C1=Cc2cc(Cl)cc(CO)c2OC1C(F)(F)F (stereo not given)	175 to 179 °C
N#Cc1ccc2c(c1)CCC(CO)O2 (stereo not given)	85 °C
COc1nc(C)c(C)nc1N(C)C(=O)N1CCN(c2cc(F)cc(F)c2)CC1	104 to 106 °C
N#Cc1cc(C(F)(F)F)nn1-c1ccc(NC(=O)c2ccncc2Cl)cc1	221 to 222 °C

Structure (SMILES)	melting point
C#CCOC(=O)c1ccccc1C1=NC(=O)C(C)(C(C)C)N1 (stereo not given)	131 to 144 °C
Cc1cccc(NC(=O)NCC(=O)N(CC(=O)OC(C)(C)C)c2ccccc2)c1	180 °C
CC(C)(C)c1ccc(/C=N/OCCCOc2ccc(C(=O)O)c(NC(=O)c3ccc(C(C)(C)C)cc3)c2)cc1	192 to 194 °C
Cc1cc(O)c(Cl)c(O)c1	72 °C
COC(=O)[C@H](Cc1ccc(OCCCN(C)Cc2ccccc2)cc1)NC(=O)[C@@H]1CCCN1S(=O)(=O)c1ccc(C)cc1	60 to 70 °C
N#CN=C(Nc1cccnc1)NC(NC(=O)c1ccc(Cl)cc1)C1CCCCC1 (stereo not given)	190 to 192 °C
COC(=O)C(=O)c1ccc(OCOc2ccccc2)cc1	52 to 54 °C
CC(CC(=O)O)C(=O)c1ccc(O)cc1 (stereo not given)	122 to 126 °C
Cc1nc(-c2ccc(OC(C)C)c([N+](=O)[O-])c2)sc1C(=O)OC(C)C	91 to 92 °C
COCCn1nc(-c2sc(N)nc2-c2ccccc2)ccc1=O	208 to 210 °C
Cc1nnc(-c2ccc3occ(-c4ccc(S(=O)(=O)C(C)C)cc4)c3c2)o1	229 to 230 °C
O=C(O)c1ncsc1-c1ccccc1	189 to 190 °C
CCC(O)(c1cc(OC)cc(OCc2ccc3ccccc3c2)c1)c1nccs1 (stereo not given)	105 °C
C=CCN(C(C)C)C(C)CC1=C(c2ccc(OC)cc2)CCCNC1=O (stereo not given)	95 to 97 °C
NC(=O)C1CCc2c(C(=O)c3ccc(Cl)cc3)cccc21 (stereo not given)	159 to 161 °C
O=C1c2ccccc2C(=O)N1CCn1ccnc1	151 to 153 °C
C#CCn1cc(CO)c([N+](=O)[O-])c1	60 °C
Fc1cccc(F)c1C1=N[C@@H](c2ccc(-c3ccc(S)cc3)cc2)CO1	133 to 135 °C
CCOC(=O)Cn1c(C(=O)NCc2nnc(C)n2-c2sc(CC)cc2C(=O)c2ccccc2)cc2ccccc21	129 to 131 °C
O=C(CCC(=O)N1CCC[C@H]1C(=O)O)c1ccccc1	95 to 97 °C
Cc1ccc2c(cc(CCCC(=O)O)n2S(=O)(=O)c2ccc3ncsc3c2)n1	67 to 70 °C
Cc1cccc(-c2nsc(C(=O)O)c2C(=O)O)c1	166 to 167 °C
CNC(=O)n1cc(C(N)=O)nc1C(C)(C)C	145 to 147 °C
CCCC(=O)Nc1cnc2cccnc2c1O	> 360 °C
CCc1noc(-c2cc3c(cn2)[nH]c2cccc(Oc4ncccn4)c23)n1	254 to 256 °C

Source: a melting point compilation (Tetko et al.; mined from patent text by program, amines drawn as free bases though some values may be those of a salt)
